The text below walks through data of patent US20050234030A1, “Modulators of CRTH2, COX-2 and FAAH” (priority 2004, published 2005).

Take `COc1ccc2c(c1)c(CC(=O)O)c(C)n2C(=O)C1CCCCC1` [[1-(cyclohexylcarbonyl)-5-methoxy-2-methyl-1H-indol-3-yl]acetic acid]: the melting point (commonly the temperature, or range, at which the solid turns liquid) is 129 °C.

For `COc1cc2c(CC(=O)O)c(C)n(C(=O)C3CCCCC3)c2cc1F` [[1-(cyclohexylcarbonyl)-6-fluoro-5-methoxy-2-methyl-1H-indol-3-yl]acetic acid], the melting point stood at 104 °C.

`Cc1c(CC(=O)O)c2cc(O)ccc2n1C(=O)N1CCCCC1` [[5-hydroxy-2-methyl-1-(piperidin-1-ylcarbonyl)-1H-indol-3-yl]acetic acid] returned a melting point of 235 °C.

The molecule `Cc1c(CC(=O)O)c2cc(O)c(F)cc2n1C(=O)c1cccs1` [[6-fluoro-5-hydroxy-2-methyl-1-(thien-2-ylcarbonyl)-1H-indol-3-yl] acetic acid] gave a melting point of 219 °C.

`COc1cc2c(CC(=O)O)c(C)n(C(=O)c3cccs3)c2cc1F` [[6-fluoro-5-methoxy-2-methyl-1-(thien-2-ylcarbonyl)-1H-indol-3-yl]acetic acid]: the melting point stood at 137 °C.
